{"source": "ChEMBL document CHEMBL5046233", "about": "“Nitroxoline and its derivatives are potent inhibitors of metallo-β-lactamases” (Eur J Med Chem, 2022)", "key": {"Bacteria [1]": {"test_system": "Bacteria", "assay": "Inhibition of recombinant VIM-1 (unknown origin) using fluorocillin as substrate at 3 uM incubated for 30 mins by fluorescence based assay"}, "[2]": {"assay": "Cytotoxicity against human HUVEC cells assessed as metabolic activity measured after 24 hrs by cell-titer blue assay", "assay_type": "toxicity, cell-based"}, "Enterobacter cloacae [3]": {"test_system": "Enterobacter cloacae", "assay": "Potentiation of imipenem-induced antibacterial activity against Enterobacter cloacae T2218 expressing GIM-1 assessed as imipenem MIC at 32 mg/L by CLSI protocol based broth microdilution assay", "assay_type": "functional"}, "Pseudomonas aeruginosa [4]": {"test_system": "Pseudomonas aeruginosa", "assay": "Potentiation of imipenem-induced antibacterial activity against Pseudomonas aeruginosa T2217 expressing VIM-2 assessed as imipenem MIC at 32 mg/L by CLSI protocol based broth microdilution assay", "assay_type": "functional"}, "Citrobacter freundii [5]": {"test_system": "Citrobacter freundii", "assay": "Potentiation of imipenem-induced antibacterial activity against Citrobacter freundii T2431 expressing KPC-3 assessed as imipenem MIC at 32 mg/L by CLSI protocol based broth microdilution assay", "assay_type": "functional"}, "Klebsiella pneumoniae [6]": {"test_system": "Klebsiella pneumoniae", "assay": "Synergistic antibacterial activity against Klebsiella pneumoniae clinical isolate T2301 expressing NDM-1 assessed as fractional inhibitory concentration index in presence of imipenem by checkerboard assay", "assay_type": "functional"}, "Klebsiella pneumoniae [7]": {"test_system": "Klebsiella pneumoniae", "assay": "Potentiation of cefuroxime-induced antibacterial activity against Klebsiella pneumoniae clinical isolate T2301 expressing NDM-1 assessed as cefuroxime MIC at 32 mg/L by CLSI protocol based broth microdilution assay", "assay_type": "functional"}, "Bacteria [8]": {"test_system": "Bacteria", "assay": "Inhibition of recombinant VIM-1 (unknown origin) using fluorocillin as substrate at 10 uM incubated for 30 mins by fluorescence based assay"}, "Pseudomonas aeruginosa [9]": {"test_system": "Pseudomonas aeruginosa", "assay": "Potentiation of imipenem-induced antibacterial activity against Pseudomonas aeruginosa T2282 expressing VIM-2 assessed as imipenem MIC at 32 mg/L by CLSI protocol based broth microdilution assay", "assay_type": "functional"}, "Citrobacter freundii [10]": {"test_system": "Citrobacter freundii", "assay": "Potentiation of imipenem-induced antibacterial activity against Citrobacter freundii T2431 expressing KPC-3 assessed as fold change in imipenem MIC at 32 mg/L by CLSI protocol based broth microdilution assay", "assay_type": "functional"}, "Escherichia coli [11]": {"test_system": "Escherichia coli", "assay": "Potentiation of imipenem-induced antibacterial activity against Escherichia coli T2433 expressing OXA-48 assessed as imipenem MIC at 32 mg/L by CLSI protocol based broth microdilution assay", "assay_type": "functional"}, "Serratia marcescens [12]": {"test_system": "Serratia marcescens", "assay": "Potentiation of imipenem-induced antibacterial activity against Serratia marcescens T2352 expressing NDM-1 assessed as fold change in imipenem MIC at 32 mg/L by CLSI protocol based broth microdilution assay", "assay_type": "functional"}, "Escherichia coli [13]": {"test_system": "Escherichia coli", "assay": "Antimicrobial activity against Escherichia coli T2359 expressing VIM-1 assessed as assessed as inhibition of bacterial growth at 0.5XMIC measured after 24 hrs by time-kill assay", "assay_type": "functional, organism-based"}, "Escherichia coli [14]": {"test_system": "Escherichia coli", "assay": "Synergistic antibacterial activity against Escherichia coli T2544 expressing VIM-1 assessed as fractional inhibitory concentration index in presence of imipenem by checkerboard assay", "assay_type": "functional"}, "Enterobacter cloacae [15]": {"test_system": "Enterobacter cloacae", "assay": "Potentiation of imipenem-induced antibacterial activity against Enterobacter cloacae T2353 expressing VIM-1 assessed as fold change in imipenem MIC at 32 mg/L by CLSI protocol based broth microdilution assay", "assay_type": "functional"}, "Escherichia coli [16]": {"test_system": "Escherichia coli", "assay": "Potentiation of cefuroxime-induced antibacterial activity against Escherichia coli clinical isolate T2228 expressing VIM-1 assessed as cefuroxime MIC at 32 mg/L by CLSI protocol based broth microdilution assay", "assay_type": "functional"}, "[17]": {"assay": "Inhibition of recombinant NDM-1 (unknown origin) using fluorocillin as substrate at 10 uM incubated for 30 mins by fluorescence based assay", "conditions": "Bacteria"}, "Klebsiella pneumoniae [18]": {"test_system": "Klebsiella pneumoniae", "assay": "Antimicrobial activity against Klebsiella pneumoniae clinical isolate T2301 expressing NDM-1 assessed as inhibition of bacterial growth by CLSI protocol based broth microdilution assay", "assay_type": "functional"}, "Pseudomonas aeruginosa [19]": {"test_system": "Pseudomonas aeruginosa", "assay": "Potentiation of imipenem-induced antibacterial activity against Pseudomonas aeruginosa T2283 expressing VIM-2 assessed as imipenem MIC at 32 mg/L by CLSI protocol based broth microdilution assay", "assay_type": "functional"}, "Citrobacter freundii [20]": {"test_system": "Citrobacter freundii", "assay": "Potentiation of imipenem-induced antibacterial activity against Citrobacter freundii T2354 expressing VIM-4 assessed as imipenem MIC at 32 mg/L by CLSI protocol based broth microdilution assay", "assay_type": "functional"}, "Klebsiella pneumoniae [21]": {"test_system": "Klebsiella pneumoniae", "assay": "Potentiation of piperacillin-induced antibacterial activity against Klebsiella pneumoniae clinical isolate T2301 expressing NDM-1 assessed as piperacillin MIC at 32 mg/L by CLSI protocol based broth microdilution assay", "assay_type": "functional"}, "Escherichia coli [22]": {"test_system": "Escherichia coli", "assay": "Synergistic antibacterial activity against Escherichia coli clinical isolate T2228 expressing VIM-1 assessed as fractional inhibitory concentration index in presence of imipenem by checkerboard assay", "assay_type": "functional"}, "Escherichia coli [23]": {"test_system": "Escherichia coli", "assay": "Antimicrobial activity against Escherichia coli T2544 expressing VIM-1 assessed as inhibition of bacterial growth by CLSI protocol based broth microdilution assay", "assay_type": "functional"}, "Escherichia coli [24]": {"test_system": "Escherichia coli", "assay": "Potentiation of imipenem-induced antibacterial activity against Escherichia coli clinical isolate T2228 expressing VIM-1 assessed as fold change in imipenem MIC at 32 mg/L by CLSI protocol based broth microdilution assay", "assay_type": "functional"}, "Klebsiella pneumoniae [25]": {"test_system": "Klebsiella pneumoniae", "assay": "Potentiation of imipenem-induced antibacterial activity against Klebsiella pneumoniae T2432 expressing KPC-9 assessed as fold change in imipenem MIC at 32 mg/L by CLSI protocol based broth microdilution assay", "assay_type": "functional"}, "Escherichia coli [26]": {"test_system": "Escherichia coli", "assay": "Potentiation of imipenem-induced antibacterial activity against Escherichia coli T2435 expressing KPC-2 assessed as fold change in imipenem MIC at 32 mg/L by CLSI protocol based broth microdilution assay", "assay_type": "functional"}, "Klebsiella pneumoniae [27]": {"test_system": "Klebsiella pneumoniae", "assay": "Potentiation of imipenem-induced antibacterial activity against Klebsiella pneumoniae clinical isolate T2301 expressing NDM-1 assessed as imipenem MIC at 32 mg/L by CLSI protocol based broth microdilution assay", "assay_type": "functional"}, "Escherichia coli [28]": {"test_system": "Escherichia coli", "assay": "Synergistic antibacterial activity against Escherichia coli T2359 expressing NDM-1 assessed as fractional inhibitory concentration index in presence of imipenem by checkerboard assay", "assay_type": "functional"}, "Escherichia coli [29]": {"test_system": "Escherichia coli", "assay": "Potentiation of imipenem-induced antibacterial activity against Escherichia coli T2433 expressing OXA-48 assessed as fold change in imipenem MIC at 32 mg/L by CLSI protocol based broth microdilution assay", "assay_type": "functional"}, "Pseudomonas aeruginosa [30]": {"test_system": "Pseudomonas aeruginosa", "assay": "Potentiation of imipenem-induced antibacterial activity against Pseudomonas aeruginosa T1098 expressing IMP-7 assessed as imipenem MIC at 32 mg/L by CLSI protocol based broth microdilution assay", "assay_type": "functional"}, "Escherichia coli [31]": {"test_system": "Escherichia coli", "assay": "Potentiation of imipenem-induced antibacterial activity against Escherichia coli T2359 expressing NDM-1 assessed as imipenem MIC at 32 mg/L by CLSI protocol based broth microdilution assay", "assay_type": "functional"}, "Escherichia coli [32]": {"test_system": "Escherichia coli", "assay": "Potentiation of imipenem-induced antibacterial activity against Escherichia coli T2351 expressing NDM-5 assessed as fold change in imipenem MIC at 32 mg/L by CLSI protocol based broth microdilution assay", "assay_type": "functional"}, "Serratia marcescens [33]": {"test_system": "Serratia marcescens", "assay": "Potentiation of imipenem-induced antibacterial activity against Serratia marcescens T2352 expressing NDM-1 assessed as imipenem MIC at 32 mg/L by CLSI protocol based broth microdilution assay", "assay_type": "functional"}, "Bacteria [34]": {"test_system": "Bacteria", "assay": "Inhibition of recombinant VIM-1 (unknown origin) using fluorocillin as substrate at 30 uM incubated for 30 mins by fluorescence based assay"}, "[35]": {"assay": "Inhibition of recombinant NDM-1 (unknown origin) using fluorocillin as substrate at 30 uM incubated for 30 mins by fluorescence based assay", "conditions": "Bacteria"}, "Bacteria [36]": {"test_system": "Bacteria", "assay": "Inhibition of recombinant IMP-1 (unknown origin) using fluorocillin as substrate at 3 uM incubated for 30 mins by fluorescence based assay"}}, "note": "Calls of active or inactive are those of the source. No cut-off for these calls is given here."}
{"smiles": "N#CCN(Cc1ccccc1)Cc1cc([N+](=O)[O-])c2cccnc2c1O", "values": [{"measurement": "inhibition", "setting": "Bacteria [1]", "value": 98, "unit": "%"}, {"measurement": "IC50 at 24 h", "setting": "[2]", "value": 45, "unit": "µg/mL"}, {"measurement": "MIC", "setting": "Enterobacter cloacae [3]", "value": 0.0005, "unit": "µg/mL"}, {"measurement": "MIC", "setting": "Pseudomonas aeruginosa [4]", "value": 0.016, "unit": "µg/mL"}, {"measurement": "MIC", "setting": "Citrobacter freundii [5]", "value": 0.004, "unit": "µg/mL"}, {"measurement": "fractional inhibitory concentration index (FICI)", "setting": "Klebsiella pneumoniae [6]", "value": 0.265}, {"measurement": "MIC", "setting": "Klebsiella pneumoniae [7]", "value": 4.1, "unit": "µg/mL"}, {"measurement": "inhibition", "setting": "Bacteria [8]", "value": 100, "unit": "%"}, {"measurement": "MIC", "setting": "Pseudomonas aeruginosa [9]", "value": 0.008, "unit": "µg/mL"}, {"measurement": "fold change (FC)", "setting": "Citrobacter freundii [10]", "value": 2}, {"measurement": "MIC", "setting": "Escherichia coli [11]", "value": 0.002, "unit": "µg/mL"}, {"measurement": "fold change (FC)", "setting": "Serratia marcescens [12]", "value": 1024}, {"measurement": "Activity", "setting": "Escherichia coli [13]", "value": "inactive"}, {"measurement": "fractional inhibitory concentration index (FICI)", "setting": "Escherichia coli [14]", "value": 0.265}, {"measurement": "fold change (FC)", "setting": "Enterobacter cloacae [15]", "value": 8}, {"measurement": "MIC", "setting": "Escherichia coli [16]", "value": 0.002, "unit": "µg/mL"}, {"measurement": "inhibition", "setting": "[17]", "value": 88, "unit": "%"}, {"measurement": "MIC", "setting": "Klebsiella pneumoniae [18]", "value": "> 0.066", "unit": "µg/mL"}, {"measurement": "MIC", "setting": "Pseudomonas aeruginosa [19]", "value": 0.001, "unit": "µg/mL"}, {"measurement": "MIC", "setting": "Citrobacter freundii [20]", "value": 0.25, "unit": "µg/mL"}, {"measurement": "MIC", "setting": "Klebsiella pneumoniae [21]", "value": 2.05, "unit": "µg/mL"}, {"measurement": "fractional inhibitory concentration index (FICI)", "setting": "Escherichia coli [22]", "value": 0.265}, {"measurement": "MIC", "setting": "Escherichia coli [23]", "value": "> 0.065", "unit": "µg/mL"}, {"measurement": "fold change (FC)", "setting": "Escherichia coli [24]", "value": 8}, {"measurement": "fold change (FC)", "setting": "Klebsiella pneumoniae [25]", "value": 2}, {"measurement": "fold change (FC)", "setting": "Escherichia coli [26]", "value": 1}, {"measurement": "MIC", "setting": "Klebsiella pneumoniae [27]", "value": 0.25, "unit": "µg/mL"}, {"measurement": "fractional inhibitory concentration index (FICI)", "setting": "Escherichia coli [28]", "value": 0.265}, {"measurement": "fold change (FC)", "setting": "Escherichia coli [29]", "value": 1}, {"measurement": "MIC", "setting": "Pseudomonas aeruginosa [30]", "value": 0.016, "unit": "µg/mL"}, {"measurement": "MIC", "setting": "Escherichia coli [31]", "value": 0.0005, "unit": "µg/mL"}, {"measurement": "fold change (FC)", "setting": "Escherichia coli [32]", "value": 8}, {"measurement": "MIC", "setting": "Serratia marcescens [33]", "value": 0.25, "unit": "µg/mL"}, {"measurement": "inhibition", "setting": "Bacteria [34]", "value": 100, "unit": "%"}, {"measurement": "inhibition", "setting": "[35]", "value": 96, "unit": "%"}, {"measurement": "inhibition", "setting": "Bacteria [36]", "value": 59, "unit": "%"}]}
